In patent publication US7041292B1, “Treating prostate cancer with anti-ErbB2 antibodies” (Genentech, Inc., priority 1999, dated 2006):
“Also recorded” adds a separate entry of the source.

How the values were obtained:
MDA-MB-175 cells = experiment: MDA-MB-175 cell proliferation, crystal violet, 4 days, with or without rHRGβ1; format: cell-based, human; settings: 10 μg/mL, not significantly reversed by exogenous HRG, FIG. 4A
Procedure: (§1) Experiment was carried out in medium containing 1% serum. Anti-ErbB2 antibodies or medium alone were added and the cells were incubated for 2 hours at 37° C. Subsequently rHRGβ1 (1 nM) or medium alone were added and the cells were incubated for 4 days. Monolayers were washed and stained/fixed with 0.5% crystal violet. To determine cell proliferation the absorbance was measured at 540 nm.
(§2) ErbB2 levels in MDA-MB-175 cells are 4–6 times higher than the level found in normal breast epithelial cells and the ErbB2-ErbB4 receptor is constitutively tyrosine phosphorylated in MDA-MB-175 cells. […] Inhibition of cell proliferation by 4D5 is dependent on the ErbB2 expression level (Lewis et al. Cancer Immunol. Immunother. 37:255–263 (1993)). […] However this effect […] by exogenous HRG.

SK-BR-3 cells = experiment: SK-BR-3 cell proliferation, crystal violet, 4 days, with or without rHRGβ1; format: cell-based, human; settings: 1% serum, FIG. 4B
Procedure: as §1, §2

[1] = test system: EGF, TGF-α or HRG mediated activation of MAPK in MCF7 cells; experiment: EGF, TGF-α or HRG activation of MAPK in MCF7 cells, Western blot; format: cell-based, human; settings: 200 nM antibody; 1 nM EGF, 1 nM TGF-α or 0.2 nM HRG; FIG. 10
Procedure: Many growth factor receptors signal through the mitogen-activated protein kinase (MAPK) pathway. These dual specificity kinases are one of the key endpoints in signal transduction pathways that ultimately triggers cancer cells to divide.
MCF7 cells (10^5 cells/well) were plated in serum containing media in 12-well cell culture plates. The next day, the cell media was removed and fresh media containing 0.1% serum was added to each well. This procedure was then repeated the following day and prior to assay the media was replaced with serum-free binding buffer (Jones et al. J. Biol. Chem. 273:11667–74 (1998); and Schaefer et al. J. Biol. Chem. 274:859–66 (1999)). […] Cells were then treated with 1 nM EGF, 1 nM TGF-α or 0.2 nM HRG for 15 minutes. The reaction was stopped by aspirating the cell medium and then adding 0.2 mL SDS-PAGE sample buffer containing 1% DTT. MAPK activation was assessed by Western blotting using an anti-active MAPK antibody (Promega) as described previously (Jones et al. J. Biol. Chem. 273:11667–74 (1998)).

[2] = test system: CWR22 human prostate cancer xenograft; experiment: Androgen dependent CWR22 prostate cancer xenograft; format: in vivo, mice; settings: antibody 20 mg/kg twice weekly
Excerpt: Animal studies: Four to six week old nude athymic BALB/c male and female mice were obtained from the National Cancer Institute-Frederick Cancer Center and maintained in pressurized ventilated caging at the Sloan-Kettering Institute. Male animals were inoculated s.c. with 1×10^6 LNCaP cells or minced tumor tissue from the androgen dependent CWR22, and females received the androgen independent sublines CWR22R, or CWR22SA1, CWRSA4, CWRSA6 which were obtained by selecting tumors for regrowth and increased serum PSA after androgen withdrawal. […] Control mice were given vehicle alone. Tumors were measured every 3–4 days with vernier calipers, and tumor volumes were calculated by the formula: p/6 × larger diameter × (smaller diameter)^2. Animals with palpably established tumors of at least 65 mm^3 in volume were designated to treatment groups.
Pairwise differences between the tumor volumes of the treatment groups were compared over time using a permutation test. […] The statistic used to test the hypothesis was the sum of the squared differences between mean tumor volume summed over all time points.
(§3) The effect of an antibody, which blocks ligand activation of an ErbB receptor, on human prostate cancer was assessed.
(§4) Both antibodies were dosed at 20 mg/kg twice per week.

[3] = test system: CWR22R human prostate cancer xenograft; experiment: Androgen independent CWR22R prostate cancer xenograft; format: in vivo, mice; settings: for effect on tumor growth / clinical activity: CWR22R androgen independent
Procedure: (§5) Male animals were inoculated s.c. with 1×10^6 LNCaP cells or minced tumor tissue from the androgen dependent CWR22, and females received the androgen independent sublines CWR22R, or CWR22SA1, CWRSA4, CWRSA6 which were obtained by selecting tumors for regrowth and increased serum PSA after androgen withdrawal. […] Control mice were given vehicle alone. Tumors were measured every 3–4 days with vernier calipers, and tumor volumes were calculated by the formula: p/6 × larger diameter × (smaller diameter)^2. Animals with palpably established tumors of at least 65 mm^3 in volume were designated to treatment groups.
Pairwise differences between the tumor volumes of the treatment groups were compared over time using a permutation test.
as §3
All injections were given IP (N=5).
as §4

[4] = test system: CWRSA6 human prostate cancer xenograft; experiment: Androgen independent CWRSA6 prostate cancer xenograft; format: in vivo, mice
Procedure: as §5
Statistical Analysis. Pairwise differences between the tumor volumes of the treatment groups were compared over time using a permutation test. […] The statistic used to test the hypothesis was the sum of the squared differences between mean tumor volume summed over all time points.

[5] = test system: MSKPC6 androgen independent prostate xenograft; experiment: Androgen independent MSKPC6 prostate xenograft, dose response; format: in vivo; settings: IP loading 6, 20 or 60 mg/kg then 3, 10 or 30 mg/kg twice weekly, FIG. 25
Procedure: Dose response studies were carried out using rhuMAb 4D5 in the CWR22R and MSKPC6 (Agus et al. Cancer Research 59:4761–4764 (1999)) androgen independent prostate xenografts. Animals were dosed IP with: control; 6 mg/kg loading dose then 3 mg/kg twice weekly; 20 mg/kg loading dose then 10 mg/kg twice weekly; or 60 mg/kg loading dose then 30 mg/kg twice weekly.

[6] = test system: LNCaP human prostate cancer xenograft; experiment: Androgen dependent LNCaP prostate cancer xenograft; format: in vivo, mice; settings: end of the treatment period, n=6
Excerpt: Animal studies: Four to six week old nude athymic BALB/c male and female mice were obtained from the National Cancer Institute-Frederick Cancer Center and maintained in pressurized ventilated caging at the Sloan-Kettering Institute. Male animals were inoculated s.c. with 1×10^6 LNCaP cells or minced tumor tissue from the androgen dependent CWR22, and females received the androgen independent sublines CWR22R, or CWR22SA1, CWRSA4, CWRSA6 which were obtained by selecting tumors for regrowth and increased serum PSA after androgen withdrawal. All lines were injected together with reconstituted basement membrane (Matrigel; Collaborative Research, Bedford, Mass.) as described previously (Nagabhushan et al. Cancer Res. 56:3042–3046 (1996); Wainstein et al. Cancer Res. 54:6049–6052 (1994); and Sato et al. Cancer Res. 57:1584–1589 (1997)). To maintain serum testosterone levels, male mice were implanted with 12.5-mg sustained release testosterone pellets (Innovative Research of American, Sarasota, Fla.) s.c. before receiving the tumor cell inoculation. […] Control mice were given vehicle alone. Tumors were measured every 3–4 days with vernier calipers, and tumor volumes were calculated by the formula: p/6 × larger diameter × (smaller diameter)^2. Animals with palpably established tumors of at least 65 mm^3 in volume were designated to treatment groups. […]

Molecule | growth inhibitory effect on MDA-MB-175 cells (MDA-MB-175 cells) | growth inhibitory effect on SK-BR-3 cells (SK-BR-3 cells) | block of EGF, TGF-α and HRG mediated activation of MAPK [1] | effect on tumor growth / clinical activity [2] | effect on tumor growth / clinical activity [3] | effect on tumor growth / clinical activity ([4]; CWRSA6 androgen independent) | effect on tumor growth [5] | mean tumor volume [6] | mean tumor volume ([3]; CWR22R, end of the treatment period, n=5) | mean tumor volume ([4]; CWRSA6, end of the treatment period, n=5)
2C4: murine monoclonal antibody binding the extracellular domain of ErbB2, blocks ligand activation; ATCC HB12697 [Mutant 2C4] | strong growth inhibitory effect | no inhibitory effect | significantly blocks | has clinical activity | has clinical activity; also recorded: suppresses the growth of androgen-independent tumor xenografts in a dose dependent manner | has clinical activity | suppresses the growth of androgen-independent tumor xenografts in a dose dependent manner | – | – | –
CC(=O)O[C@H]1C(=O)[C@@]2(C)[C@H]([C@H](OC(=O)c3ccccc3)[C@]3(O)C[C@H](OC(=O)[C@H](O)[C@@H](NC(=O)c4ccccc4)c4ccccc4)C(C)=C1C3(C)C)[C@]1(OC(C)=O)CO[C@@H]1C[C@@H]2O [paclitaxel, reference compound] | – | – | – | – | – | – | – | 233 mm^3 | 1,273 mm^3 | 1,496 mm^3
PEG-Fab: Fab' fragment of rhuMAb 2C4 expressed in E. coli and conjugated to 20 kD branched polyethylene glycol (conjugate, chains of the INN, looked up, Fab' 20 kD branched PEG) VH: EVQLVESGGGLVQPGGSLRLSCAASGFTFTDYTMDWVRQAPGKGLEWVADVNPNSGGSIYNQRFKGRFTLSVDRSKNTLYLQMNSLRAEDTAVYYCARNLGPSFYFDYWGQGTLVTVSS VL: DIQMTQSPSSLSASVGDRVTITCKASQDVSIGVAWYQQKPGKAPKLLIYSASYRYTGVPSRFSGSGSGTDFTLTISSLQPEDFATYYCQQYYIYPYTFGQGTKVEIK | – | – | – | – | inhibits tumor growth | – | – | – | – | –
